{"source": "the NIST ThermoML archive (doi:10.1016/j.fluid.2008.11.001)", "key": {"[1]": {"test": "xn = mol fraction of the nth substance listed", "conditions": "298.15 K, 101 kPa, Liquid, Vibrating tube method"}, "[2]": {"test": "refractive index (Na D-line) (dimensionless); xn = mol fraction of the nth substance listed", "conditions": "298.15 K, 101 kPa, Liquid, refractometer"}, "[3]": {"conditions": "298.15 K; 101 kPa; Liquid; Vibrating tube method"}, "[4]": {"test": "refractive index (Na D-line) (dimensionless)", "conditions": "298.15 K; 101.33 kPa; Liquid; refractometer"}}, "note": "± gives the expanded uncertainty stated by the source."}
{"compound": "CC(C)CC(C)(C)C", "note": "[2,2,4-trimethylpentane] + COC(=O)OC", "values": [{"measurement": "mass density", "setting": "[1]; x2 = 0", "result": "688.18 ± 0.15", "unit": "kg/m3"}, {"measurement": "refractive index", "setting": "[2]; x2 = 0", "result": "1.38898 ± 0.00014"}]}
{"compound": "COC(=O)OC", "note": "[dimethyl carbonate] + CCO", "values": [{"measurement": "mass density", "setting": "[1]; x1 = 0.051", "result": "805.05 ± 0.11", "unit": "kg/m3"}, {"measurement": "mass density", "setting": "[1]; x1 = 0.1", "result": "823.15 ± 0.11", "unit": "kg/m3"}, {"measurement": "mass density", "setting": "[1]; x1 = 0.1999", "result": "857.92 ± 0.11", "unit": "kg/m3"}, {"measurement": "mass density", "setting": "[1]; x1 = 0.2998", "result": "889.9 ± 0.12", "unit": "kg/m3"}, {"measurement": "mass density", "setting": "[1]; x1 = 0.4005", "result": "919.86 ± 0.13", "unit": "kg/m3"}, {"measurement": "mass density", "setting": "[1]; x1 = 0.5008", "result": "947.72 ± 0.15", "unit": "kg/m3"}, {"measurement": "mass density", "setting": "[1]; x1 = 0.6011", "result": "973.66 ± 0.11", "unit": "kg/m3"}, {"measurement": "mass density", "setting": "[1]; x1 = 0.6993", "result": "997.55 ± 0.08", "unit": "kg/m3"}, {"measurement": "mass density", "setting": "[1]; x1 = 0.8002", "result": "1020.67 ± 0.07", "unit": "kg/m3"}, {"measurement": "mass density", "setting": "[1]; x1 = 0.9008", "result": "1042.49 ± 0.06", "unit": "kg/m3"}, {"measurement": "mass density", "setting": "[1]; x1 = 0.9514", "result": "1053.11 ± 0.06", "unit": "kg/m3"}, {"measurement": "mass density", "setting": "[1]; x1 = 1", "result": "1063.04 ± 0.06", "unit": "kg/m3"}, {"measurement": "refractive index", "setting": "[2]; x1 = 0.051", "result": "1.36039 ± 0.00014"}, {"measurement": "refractive index", "setting": "[2]; x1 = 0.1", "result": "1.3606 ± 0.00014"}, {"measurement": "refractive index", "setting": "[2]; x1 = 0.1999", "result": "1.36122 ± 0.00014"}, {"measurement": "refractive index", "setting": "[2]; x1 = 0.2998", "result": "1.36186 ± 0.00014"}, {"measurement": "refractive index", "setting": "[2]; x1 = 0.4005", "result": "1.36241 ± 0.00014"}, {"measurement": "refractive index", "setting": "[2]; x1 = 0.5008", "result": "1.36301 ± 0.00014"}, {"measurement": "refractive index", "setting": "[2]; x1 = 0.6011", "result": "1.36375 ± 0.00014"}, {"measurement": "refractive index", "setting": "[2]; x1 = 0.6993", "result": "1.36439 ± 0.00014"}, {"measurement": "refractive index", "setting": "[2]; x1 = 0.8002", "result": "1.36504 ± 0.00014"}, {"measurement": "refractive index", "setting": "[2]; x1 = 0.9008", "result": "1.36576 ± 0.00014"}, {"measurement": "refractive index", "setting": "[2]; x1 = 0.9514", "result": "1.36614 ± 0.00014"}, {"measurement": "refractive index", "setting": "[2]; x1 = 1", "result": "1.36654 ± 0.00014"}]}
{"compound": "CCO", "note": "[ethanol] + COC(=O)OC", "values": [{"measurement": "mass density", "setting": "[1]; x2 = 0", "result": "785.33 ± 0.12", "unit": "kg/m3"}, {"measurement": "refractive index", "setting": "[2]; x2 = 0", "result": "1.35933 ± 0.00014"}]}
{"compound": "CC(C)CC(C)(C)C", "note": "[2,2,4-trimethylpentane]", "values": [{"measurement": "mass density", "setting": "[3]", "result": "688.18 ± 0.15", "unit": "kg/m3"}, {"measurement": "refractive index", "setting": "[4]", "result": "1.38898 ± 0.00014"}]}
{"compound": "CCO", "note": "[ethanol]", "values": [{"measurement": "mass density", "setting": "[3]", "result": "785.33 ± 0.12", "unit": "kg/m3"}, {"measurement": "refractive index", "setting": "[4]", "result": "1.35933 ± 0.00014"}]}
{"compound": "COC(=O)OC", "note": "[dimethyl carbonate] + CC(C)CC(C)(C)C", "values": [{"measurement": "mass density", "setting": "[1]; x1 = 0.0508", "result": "697.25 ± 0.15", "unit": "kg/m3"}, {"measurement": "mass density", "setting": "[1]; x1 = 0.1017", "result": "706.78 ± 0.15", "unit": "kg/m3"}, {"measurement": "mass density", "setting": "[1]; x1 = 0.1995", "result": "727.06 ± 0.15", "unit": "kg/m3"}, {"measurement": "mass density", "setting": "[1]; x1 = 0.3007", "result": "751.06 ± 0.15", "unit": "kg/m3"}, {"measurement": "mass density", "setting": "[1]; x1 = 0.4002", "result": "778.05 ± 0.17", "unit": "kg/m3"}, {"measurement": "mass density", "setting": "[1]; x1 = 0.5002", "result": "809.37 ± 0.2", "unit": "kg/m3"}, {"measurement": "mass density", "setting": "[1]; x1 = 0.5996", "result": "845.17 ± 0.18", "unit": "kg/m3"}, {"measurement": "mass density", "setting": "[1]; x1 = 0.7005", "result": "887.53 ± 0.16", "unit": "kg/m3"}, {"measurement": "mass density", "setting": "[1]; x1 = 0.8002", "result": "936.46 ± 0.12", "unit": "kg/m3"}, {"measurement": "mass density", "setting": "[1]; x1 = 0.9011", "result": "994.92 ± 0.07", "unit": "kg/m3"}, {"measurement": "mass density", "setting": "[1]; x1 = 0.9504", "result": "1027.38 ± 0.06", "unit": "kg/m3"}, {"measurement": "mass density", "setting": "[1]; x1 = 1", "result": "1063.04 ± 0.06", "unit": "kg/m3"}, {"measurement": "refractive index", "setting": "[2]; x1 = 0.0508", "result": "1.38814 ± 0.00014"}, {"measurement": "refractive index", "setting": "[2]; x1 = 0.1017", "result": "1.38716 ± 0.00014"}, {"measurement": "refractive index", "setting": "[2]; x1 = 0.1995", "result": "1.38504 ± 0.00014"}, {"measurement": "refractive index", "setting": "[2]; x1 = 0.3007", "result": "1.38275 ± 0.00014"}, {"measurement": "refractive index", "setting": "[2]; x1 = 0.4002", "result": "1.38062 ± 0.00014"}, {"measurement": "refractive index", "setting": "[2]; x1 = 0.5002", "result": "1.37889 ± 0.00014"}, {"measurement": "refractive index", "setting": "[2]; x1 = 0.5996", "result": "1.37642 ± 0.00014"}, {"measurement": "refractive index", "setting": "[2]; x1 = 0.7005", "result": "1.37408 ± 0.00014"}, {"measurement": "refractive index", "setting": "[2]; x1 = 0.8002", "result": "1.37109 ± 0.00014"}, {"measurement": "refractive index", "setting": "[2]; x1 = 0.9011", "result": "1.36879 ± 0.00014"}, {"measurement": "refractive index", "setting": "[2]; x1 = 0.9504", "result": "1.36722 ± 0.00014"}, {"measurement": "refractive index", "setting": "[2]; x1 = 1", "result": "1.36654 ± 0.00014"}]}
{"compound": "COC(=O)OC", "note": "[dimethyl carbonate]", "values": [{"measurement": "mass density", "setting": "[3]", "result": "1063.04 ± 0.06", "unit": "kg/m3"}, {"measurement": "refractive index", "setting": "[4]", "result": "1.36654 ± 0.00014"}]}
